Assay results taken from PubChem BioAssay AID720578 (The Scripps Research Institute Molecular Screening Center, 2013).
Where “and” joins values, the source holds several entries; their conditions need not be identical. Identical values can stand only once. Calls of active or inactive are those of the source. No rule for the calls is given here.

Target: Crimean-Congo hemorrhagic fever virus L protein viral ovarian tumor (vOTU) protease domain
Assay: CCHFV vOTU protease inhibitor potency, dose response, biochemical, fluorescence, Pep-AMC substrate (AID 720578)
Settings: recombinant CCHFV vOTU, Pep-AMC fluorescence cleavage

Question: With `CC(C)NC1=C(Cl)C(=O)c2ccccc2C1=O` as the compound, how does the IC50 read?
Answer: Its IC50 is “inactive”.

Question: Which IC50 does the source give for `O=C(O)CSc1cc(NS(=O)(=O)c2ccc(Cl)cc2)c2ccccc2c1O` here?
Answer: The IC50 was 5 µM.

Question: `CCOC(=O)/C=C(\C)Sc1cc(O)c2ccccc2c1O` was tested. Which IC50 did it give?
Answer: The IC50 was 1.57 µM.

Question: For `O=C1Cc2ccccc2C(=O)N1`, which IC50 is on record?
Answer: Its IC50 is 0.396 µM.

Question: For `CC(=O)[C@@H]1[C@@H]2C(=O)N(c3ccc(F)c(Cl)c3)C(=O)[C@@H]2C2c3ccccc3C=CN21` (stereo partly drawn), which IC50 is on record?
Answer: The IC50 was “inactive”.

Question: For `CC(=O)[C@H]1[C@@H]2C(=O)N(c3cccc(Cl)c3)C(=O)[C@@H]2[C@H]2c3ccccc3C=CN21`, which IC50 is on record?
Answer: The IC50 was “inactive”.

Question: How did the IC50 turn out when `Cc1cc(C)c(S(=O)(=O)/N=C2\C=C(Nc3ccc(C(=O)O)cc3)C(=O)c3ccccc32)c(C)c1` was run?
Answer: The IC50 was 1.72 µM.

Question: With `O=C1C(=O)c2ccccc2-c2ccccc21` as the compound, how does the IC50 read?
Answer: The IC50 was 2.4 µM.

Question: For `COc1ccc(/C=N/NC(=O)c2nn(-c3ccc(Cl)cc3)c(=O)c3c(N)scc23)cc1`, which IC50 is on record?
Answer: The IC50 was “inactive”.

Question: `CCOc1ccc2noc3c2c1C(=O)c1ccccc1-3` was tested. Which IC50 did it give?
Answer: Its IC50 is “inactive”.

Question: With `Cc1ccc(NC2=CC(=O)C(=O)c3ccccc32)cc1` as the compound, how does the IC50 read?
Answer: The IC50 was 7.14 µM.

Question: Which IC50 does the source give for `NS(=O)(=O)c1ccc(NC2=CC(=O)C(=O)c3ccccc32)cc1` here?
Answer: Its IC50 is 4.85 µM.

Question: For `CC1OC2CC(=O)OC2C2=C1C(=O)c1c(O)cccc1C2=O` (stereo not drawn), which IC50 is on record?
Answer: The IC50 was 3.45 µM.

Question: With `CC(NC1=CC(=O)c2cccnc2C1=O)C(O)c1ccccc1` (stereo not drawn) as the compound, how does the IC50 read?
Answer: The IC50 was 1.94 µM.

Question: For `CCOC(=O)N=Nc1c2ccccc2c2nc3no[nH]c3nc12`, which IC50 is on record?
Answer: The IC50 was 2.35 µM.

Question: Which IC50 does the source give for `Cc1oc2c(c1C(=O)N1CCOCC1)C(=O)c1ccccc1C2=O` here?
Answer: The IC50 was “inactive”.

Question: How did the IC50 turn out when `O=S(=O)(N=C1C=CC(=NS(=O)(=O)c2ccccc2)c2ccccc21)c1ccccc1` was run?
Answer: Its IC50 is “inactive”.

Question: `CC1=C(SCc2ccccc2)C(=O)c2ccccc2C1=O` was tested. Which IC50 did it give?
Answer: Its IC50 is 2.51 µM.

Question: How did the IC50 turn out when `NC1=C(Br)C(=O)c2ncccc2C1=O` was run?
Answer: Its IC50 is 0.435 µM.

Question: Which IC50 does the source give for `CN(C)CCCNc1cc(O)c2ncccc2c1` here?
Answer: Its IC50 is 5.13 µM.

Question: Which IC50 does the source give for `Cn1c2ccccc2c2cc(/C=N/NC(=O)c3cc(O)ccc3O)ccc21` here?
Answer: Its IC50 is 9.12 µM.

Question: Which IC50 does the source give for `O=C(c1ccco1)[C@@H]1[C@@H]2C(=O)N(c3ccc(Br)cc3)C(=O)[C@@H]2C2c3ccccc3C=CN21` (stereo partly drawn) here?
Answer: Its IC50 is 5.26 µM.

Question: For `O=C(O)c1ccc(NC2=C/C(=N/S(=O)(=O)c3cccs3)c3ccccc3C2=O)cc1`, which IC50 is on record?
Answer: Its IC50 is 0.384 µM.

Question: For `O=C(O)c1cccc(NC2=C(N3CCOCC3)C(=O)c3ccccc3C2=O)c1`, which IC50 is on record?
Answer: The IC50 was “inactive”.

Question: `CC1OC(CC(=O)O)CC2=C1C(=O)c1c(O)cccc1C2=O` (stereo not drawn) was tested. Which IC50 did it give?
Answer: Its IC50 is 3.82 µM.

Question: `COc1cc(Br)c(C(=O)c2nccc3cc(OC)c(OC)cc23)cc1OC` was tested. Which IC50 did it give?
Answer: Its IC50 is 0.27 µM.

Question: With `CCOC(=O)C1CCN(C(=O)c2c(C)oc3c2C(=O)c2ccccc2C3=O)CC1` as the compound, how does the IC50 read?
Answer: The IC50 was “inactive”.

Question: With `CCOCCCNC1=C(Cl)C(=O)c2ccccc2C1=O` as the compound, how does the IC50 read?
Answer: The IC50 was “inactive”.

Question: `COc1ccc(/C=N/NC(=O)c2nn(-c3ccccc3)c(=O)c3c(N)scc23)cc1` was tested. Which IC50 did it give?
Answer: The IC50 was 8.43 µM.

Question: Which IC50 does the source give for `CNc1ccc2nc3ccccc3[n+](C)c2c1` here?
Answer: The IC50 was “inactive”.

Question: Which IC50 does the source give for `Cc1c(Cl)cnc(NC(=O)COC(=O)c2ccc([N+](=O)[O-])s2)c1Cl` here?
Answer: The IC50 was 7.08 µM.

Question: For `O=C(NC1=CC(=O)c2ccccc2C1=O)c1ccccc1`, which IC50 is on record?
Answer: The IC50 was 3.85 µM.

Question: For `CCCCCCCCCCCCCCCC[n+]1cccc2ccccc21`, which IC50 is on record?
Answer: The IC50 was “inactive”.

Question: `CC(=O)N(C1=C(Cl)C(=O)c2ccccc2C1=O)c1ccc(C(=O)O)cc1` was tested. Which IC50 did it give?
Answer: Its IC50 is 2.74 µM.

Question: `CCCCCCCCCCCCCCCCn1cc[n+](C)c1` was tested. Which IC50 did it give?
Answer: Its IC50 is “inactive”.

Question: With `Cc1ccccc1-c1cc2c(nn1)-c1ccccc1C2=O` as the compound, how does the IC50 read?
Answer: The IC50 was 0.457 µM.

Question: `CN(C)c1cccc2c1c(NS(=O)(=O)c1cn(C)cn1)nn2C` was tested. Which IC50 did it give?
Answer: Its IC50 is “inactive”.

Question: For `CCc1cc[n+](C2=C([O-])c3ccccc3C(=O)/C2=N\S(=O)(=O)c2cccs2)cc1`, which IC50 is on record?
Answer: The IC50 was 4.4 µM.

Question: For `NC1=C(Br)C(=O)c2ccccc2C1=O`, which IC50 is on record?
Answer: Its IC50 is 4.48 µM.

Question: With `C[n+]1c2cc(N)ccc2cc2ccc(N)cc21` as the compound, how does the IC50 read?
Answer: Its IC50 is 0.945 µM and 3.14 µM.

Question: `C[n+]1c(-c2ccccc2)cc2c(=Cc3ccccc3)c3ccccc3n21` was tested. Which IC50 did it give?
Answer: The IC50 was 4.95 µM.

Question: `Cc1ccc(Cl)cc1NC1=C/C(=N\S(=O)(=O)c2cccs2)c2ccccc2C1=O` was tested. Which IC50 did it give?
Answer: The IC50 was 0.787 µM.

Question: Which IC50 does the source give for `COc1cc(C=c2c3ccccc3n3c2cc(-c2ccccc2)[n+]3C)cc(OC)c1OC` here?
Answer: Its IC50 is 6.76 µM.

Question: `COc1cc2c(cc1OC)-c1c(OC)c(OC)cc3c1C(C2)N(C)CC3` (stereo not drawn) was tested. Which IC50 did it give?
Answer: The IC50 was > 115 µM (inactive).

Question: `O=C1C(N2CCOCC2)=C(n2nnc3ccccc32)C(=O)c2ccccc21` was tested. Which IC50 did it give?
Answer: The IC50 was 2.69 µM.

Question: How did the IC50 turn out when `O=C(NC(=S)Nc1ccccc1N1CCCC1)c1ccccc1Br` was run?
Answer: The IC50 was “inactive”.

Question: With `Cc1c(C=O)c(Cl)n(C)c(=O)c1C#N` as the compound, how does the IC50 read?
Answer: The IC50 was “inactive”.

Question: With `O=C(COC(=O)c1ccc([N+](=O)[O-])s1)Nc1ncc(C(F)(F)F)cc1Cl` as the compound, how does the IC50 read?
Answer: Its IC50 is 8.84 µM.

Question: How did the IC50 turn out when `Cn1c(=O)c2c(-c3ccccc3)n(-c3ccc(N)cc3)cc2n(C)c1=O` was run?
Answer: Its IC50 is 4.53 µM.

Question: Which IC50 does the source give for `Cc1cnc(C=NNC(N)=S)c2cccc(N)c12` here?
Answer: The IC50 was 2.95 µM.

Question: How did the IC50 turn out when `COc1cc2c(cc1OC)-c1c(OC)c(OC)cc3c1[C@H](C2)N(C)CC3` was run?
Answer: Its IC50 is 7 µM.

Question: Which IC50 does the source give for `Cc1ccc(S(=O)(=O)/N=C2\C=C(Nc3cccc(C(=O)O)c3)C(=O)c3ccccc32)c(C)c1` here?
Answer: The IC50 was 0.973 µM.

Question: For `O=C1OC(Nc2cc(Br)cc3cccnc23)c2ccccc21` (stereo not drawn), which IC50 is on record?
Answer: The IC50 was 5.23 µM.

Question: With `COc1cc(C(=O)c2nccc3cc(OC)c(OC)cc23)c([N+](=O)[O-])cc1OC` as the compound, how does the IC50 read?
Answer: The IC50 was 1.05 µM.

Question: How did the IC50 turn out when `O=C(O)c1ccc(S(=O)(=O)/N=C2\C=C(Nc3ccccc3F)C(=O)c3ccccc32)cc1` was run?
Answer: The IC50 was 0.397 µM.

Question: How did the IC50 turn out when `O=c1[nH]c(=S)[nH]c2c1C(c1ccc(Br)cc1)c1c([nH]c(=S)[nH]c1=O)O2` was run?
Answer: Its IC50 is “inactive”.

Question: How did the IC50 turn out when `COc1ccc(S(=O)(=O)/N=C2\C=C(Nc3ccc(O)cc3)C(=O)c3ccccc32)cc1` was run?
Answer: Its IC50 is 0.375 µM.

Question: How did the IC50 turn out when `O=S(=O)(Nc1c(S(=O)(=O)c2ccccc2)c2nc3ccccc3nc2n1C1CCCCC1)c1ccccc1` was run?
Answer: Its IC50 is > 115 µM (inactive).

Question: For `CCN(CC)CCCC(C)n1c2nc(=O)[nH]c(=O)c-2nc2cc(Cl)ccc21` (stereo not drawn), which IC50 is on record?
Answer: Its IC50 is 2.5 µM.

Question: For `Cn1nc(-c2ccccn2)nc2c(=O)n(C)c(=O)nc1-2`, which IC50 is on record?
Answer: The IC50 was 0.366 µM.

Question: `C[n+]1c(-c2ccccc2)cc2c(=Cc3ccc([N+](=O)[O-])cc3)c3ccccc3n21` was tested. Which IC50 did it give?
Answer: Its IC50 is “inactive”.

Question: With `COc1ccc(NC(=S)Nc2ccc3nsnc3c2)cc1` as the compound, how does the IC50 read?
Answer: Its IC50 is 6.79 µM.

Question: Which IC50 does the source give for `Nc1scc2c(C(=O)N/N=C/c3ccc(Cl)cc3)nn(-c3ccccc3)c(=O)c12` here?
Answer: Its IC50 is “inactive”.

Question: How did the IC50 turn out when `O=S(=O)(Nc1cc(Sc2ncn[nH]2)c(O)c2ccccc12)c1ccccc1` was run?
Answer: The IC50 was 0.708 µM.

Question: For `CC(=O)Nc1ccc(S(=O)(=O)NC2=C(N3CCN(c4ccc(F)cc4)CC3)C(=O)c3ccccc3C2=O)cc1`, which IC50 is on record?
Answer: Its IC50 is “inactive”.

Question: With `CC[n+]1c(-c2ccccc2)c2cc(N)ccc2c2ccc(N)cc21` as the compound, how does the IC50 read?
Answer: Its IC50 is 1.56 µM.

Question: How did the IC50 turn out when `O=S(=O)(c1ccc2nc(-c3ccco3)c(-c3ccco3)nc2c1)N1CCOCC1` was run?
Answer: Its IC50 is “inactive”.

Question: For `COc1ccc(-n2c3nc4ccccc4nc3c3c(=N)oc(C)nc32)cc1`, which IC50 is on record?
Answer: The IC50 was “inactive”.

Question: For `CC(=O)N(C1=C(Cl)C(=O)c2ccccc2C1=O)C1CCCCC1`, which IC50 is on record?
Answer: Its IC50 is 3.54 µM.

Question: For `COc1ccccc1N=Nc1c(O)[nH]c(=S)[nH]c1=O`, which IC50 is on record?
Answer: Its IC50 is “inactive”.

Question: With `CCC(CNc1cc(OC)cc2cccnc12)NC1CCCCC1` (stereo not drawn) as the compound, how does the IC50 read?
Answer: Its IC50 is 6.32 µM.

Question: With `CCCCCCCCN1C(=O)[C@@H](CC(=O)NCCCOCCCC)C[C@@]2(C(=O)OC)C1=C[C@H](C(C)C)O[C@@H]2C1CC1` as the compound, how does the IC50 read?
Answer: The IC50 was “inactive”.

Question: `O=C(NC(=S)Nc1ccccc1N1CCCC1)c1ccc(F)cc1` was tested. Which IC50 did it give?
Answer: Its IC50 is “inactive”.

Question: `C=CCN(CC=C)C(=S)Nc1ccc2nsnc2c1` was tested. Which IC50 did it give?
Answer: Its IC50 is “inactive”.

Question: How did the IC50 turn out when `O=C1C(Cl)=C(NCCCO)C(=O)c2ccccc21` was run?
Answer: The IC50 was “inactive”.

Question: `O=S(=O)(Nc1cc2nc3ccccc3nc2n1Cc1ccccc1)c1ccc(Cl)cc1` was tested. Which IC50 did it give?
Answer: Its IC50 is 2.57 µM.

Question: How did the IC50 turn out when `O=[N+]([O-])c1c(Nc2ccccn2)cc(Cl)c2nonc12` was run?
Answer: The IC50 was “inactive”.

Question: Which IC50 does the source give for `Cc1cc2c(cc1C)C(=O)C(Br)=C(N)C2=O` here?
Answer: Its IC50 is 5.56 µM.
